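Dose response: 5 concentrations. Exposure: 48 h. Format: 96-well plates. Endpoint: linear interpolation; highest concentration if not reached. TGI marks complete inhibition of growth.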
Tests used:
Assay in all cases: DTP human tumour cell line panel, 48 h
SNB-19 CNS = test system: SNB-19 CNS
SF-295 CNS = test system: SF-295 CNS
MDA-MB-231 breast = test system: MDA-MB-231 breast
HS 578T breast = test system: HS 578T breast
HT29 colon = test system: HT29 colon
DU-145 prostate = test system: DU-145 prostate
UO-31 renal = test system: UO-31 renal
IGROV1 ovarian = test system: IGROV1 ovarian
SK-OV-3 ovarian = test system: SK-OV-3 ovarian
K-562 leukemia = test system: K-562 leukemia
OVCAR-4 ovarian = test system: OVCAR-4 ovarian
MALME-3M melanoma = test system: MALME-3M melanoma
T-47D breast = test system: T-47D breast
SK-MEL-5 melanoma = test system: SK-MEL-5 melanoma
SK-MEL-28 melanoma = test system: SK-MEL-28 melanoma
EKVX NSCLC = test system: EKVX NSCLC
UACC-62 melanoma = test system: UACC-62 melanoma
SN12C renal = test system: SN12C renal
MDA-N = test system: MDA-N
KM12 colon = test system: KM12 colon
HCT-15 colon = test system: HCT-15 colon
U251 CNS = test system: U251 CNS
MOLT-4 leukemia = test system: MOLT-4 leukemia
OVCAR-5 ovarian = test system: OVCAR-5 ovarian
BT-549 breast = test system: BT-549 breast
SW-620 colon = test system: SW-620 colon
OVCAR-8 ovarian = test system: OVCAR-8 ovarian
NCI-H226 lung = test system: NCI-H226 lung
SNB-75 CNS = test system: SNB-75 CNS
NCI-H522 lung = test system: NCI-H522 lung
LOX IMVI melanoma = test system: LOX IMVI melanoma
COLO 205 colon = test system: COLO 205 colon
HL-60(TB) leukemia = test system: HL-60(TB) leukemia
TK-10 renal = test system: TK-10 renal
RPMI-8226 leukemia = test system: RPMI-8226 leukemia
HCC-2998 colon = test system: HCC-2998 colon
HOP-62 NSCLC = test system: HOP-62 NSCLC
SK-MEL-2 melanoma = test system: SK-MEL-2 melanoma
A549 NSCLC = test system: A549 NSCLC
NCI-H460 lung = test system: NCI-H460 lung
M14 melanoma = test system: M14 melanoma
HCT-116 colon = test system: HCT-116 colon
PC-3 prostate = test system: PC-3 prostate
ACHN renal = test system: ACHN renal
SR leukemia = test system: SR leukemia
SF-268 CNS = test system: SF-268 CNS
OVCAR-3 ovarian = test system: OVCAR-3 ovarian
MDA-MB-435 = test system: MDA-MB-435
HOP-92 NSCLC = test system: HOP-92 NSCLC
MCF7 breast = test system: MCF7 breast
NCI-H23 lung = test system: NCI-H23 lung
786-0 renal = test system: 786-0 renal
CCRF-CEM leukemia = test system: CCRF-CEM leukemia
NCI/ADR-RES ovarian = test system: NCI/ADR-RES ovarian
A498 renal = test system: A498 renal
UACC-257 melanoma = test system: UACC-257 melanoma
SF-539 CNS = test system: SF-539 CNS
CAKI-1 renal = test system: CAKI-1 renal
RXF 393 renal = test system: RXF 393 renal

Measured: TGI

Clc1ccc2nc3c(c(-c4ccccc4)nn3-c3ccccc3)c(-c3ccccc3)c2c1
not listed: A498 renal | UACC-257 melanoma | SF-539 CNS | CAKI-1 renal | RXF 393 renal
> 100 µM: all other assays above

Cc1cc2nc(N)n[n+]([O-])c2cc1C
not listed: OVCAR-4 ovarian | SNB-75 CNS | NCI-H460 lung | OVCAR-3 ovarian | HOP-92 NSCLC
> 100 µM: all other assays above

Source: PubChem BioAssay (NCI)
